Test results reported in US20080090827A1 (Artesian Therapeutics, Inc., priority 2004, published 2008).

Key:
[1] = biological target: Human platelet cyclic AMP phosphodiesterase (PDE3) (Homo sapiens, UniProt Q14432); assay: In vitro assay for measuring cAMP PDE-3 inhibitory activity; format: biochemical; details: 10 min at 30° C., n=3
Protocol: Three assays each were performed for each of five test compound concentrations, the mean of the determinations (n=3) at each concentration was plotted, and IC50 values were determined graphically.

[2] = biological target: T1, human recombinant beta-2 receptors expressed in CHO-WT21 cells (Homo sapiens, UniProt P07550); assay: Radioligand binding for β2-receptor affinity ([125I](−)Iodocyanopindolol); details: at a concentration of 100 nM, read-out: inhibition of β1-adrenergic binding (as printed, β2-receptor assay)
T1 construct: expressed in transfected cells; host or cells: CHO-WT21 cells
T1 sequence (P07550 whole entry): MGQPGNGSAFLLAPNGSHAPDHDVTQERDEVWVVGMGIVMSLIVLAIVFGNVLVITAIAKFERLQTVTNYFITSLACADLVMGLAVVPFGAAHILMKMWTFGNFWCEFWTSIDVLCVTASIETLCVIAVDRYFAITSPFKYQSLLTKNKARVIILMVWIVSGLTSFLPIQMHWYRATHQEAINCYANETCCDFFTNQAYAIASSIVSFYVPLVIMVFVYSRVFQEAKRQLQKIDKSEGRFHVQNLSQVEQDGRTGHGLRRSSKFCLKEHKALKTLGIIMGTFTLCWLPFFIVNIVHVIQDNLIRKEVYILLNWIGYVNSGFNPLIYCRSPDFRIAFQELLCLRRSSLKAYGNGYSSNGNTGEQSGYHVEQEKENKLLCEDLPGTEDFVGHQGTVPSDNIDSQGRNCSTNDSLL
Protocol: (§1) β2-Adrenergic receptor binding was measured in human recombinant beta-2 receptors expressed in CHO-WT21 cells, using [^125I] (−) Iodocyanopindolol (2000 Ci/mmol) as the radioligand, as described in Kalaria et al. (1998) and Minneman et al. (1979), supra. Compounds 17d, 21, 31b, 46a, and 46b each inhibited greater than 25% β1-adrenergic binding at a concentration of 100 nM.

[3] = biological target: T2, human recombinant beta-1 receptors expressed in CHO-REX16 cells (Homo sapiens, UniProt P08588); assay: Radioligand binding for β1-receptor affinity ([125I](−)Iodocyanopindolol); details: at a concentration of 100 nM; read-out: inhibition of β1-adrenergic binding
T2 construct: expressed in transfected cells; host or cells: CHO-REX16 cells
T2 sequence (P08588 whole entry): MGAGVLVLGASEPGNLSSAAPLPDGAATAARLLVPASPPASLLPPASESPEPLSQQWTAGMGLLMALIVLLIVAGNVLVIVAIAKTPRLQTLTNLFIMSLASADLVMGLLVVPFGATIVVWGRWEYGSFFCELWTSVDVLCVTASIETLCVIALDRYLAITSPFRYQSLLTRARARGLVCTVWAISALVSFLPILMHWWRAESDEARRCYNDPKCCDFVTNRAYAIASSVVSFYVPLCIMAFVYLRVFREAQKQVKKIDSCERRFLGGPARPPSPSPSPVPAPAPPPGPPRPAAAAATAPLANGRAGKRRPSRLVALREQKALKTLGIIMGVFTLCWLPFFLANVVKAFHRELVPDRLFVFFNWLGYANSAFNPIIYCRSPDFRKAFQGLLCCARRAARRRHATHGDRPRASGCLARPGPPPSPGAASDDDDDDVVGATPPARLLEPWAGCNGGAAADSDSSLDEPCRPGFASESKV
Protocol: as §1, with “β1-Adrenergic” for “β2-Adrenergic”, “beta-1” for “beta-2”, “CHO-REX16” for “CHO-WT21”, “al., J. Neurochem. 53: 1772-81 (1998),” for “al. (1998)”, “al., Mol. Pharmacol. 16: 34-46 (1979).” for “al. (1979), supra.”

Sequence of Human platelet cyclic AMP phosphodiesterase (PDE3) (Q14432 whole entry): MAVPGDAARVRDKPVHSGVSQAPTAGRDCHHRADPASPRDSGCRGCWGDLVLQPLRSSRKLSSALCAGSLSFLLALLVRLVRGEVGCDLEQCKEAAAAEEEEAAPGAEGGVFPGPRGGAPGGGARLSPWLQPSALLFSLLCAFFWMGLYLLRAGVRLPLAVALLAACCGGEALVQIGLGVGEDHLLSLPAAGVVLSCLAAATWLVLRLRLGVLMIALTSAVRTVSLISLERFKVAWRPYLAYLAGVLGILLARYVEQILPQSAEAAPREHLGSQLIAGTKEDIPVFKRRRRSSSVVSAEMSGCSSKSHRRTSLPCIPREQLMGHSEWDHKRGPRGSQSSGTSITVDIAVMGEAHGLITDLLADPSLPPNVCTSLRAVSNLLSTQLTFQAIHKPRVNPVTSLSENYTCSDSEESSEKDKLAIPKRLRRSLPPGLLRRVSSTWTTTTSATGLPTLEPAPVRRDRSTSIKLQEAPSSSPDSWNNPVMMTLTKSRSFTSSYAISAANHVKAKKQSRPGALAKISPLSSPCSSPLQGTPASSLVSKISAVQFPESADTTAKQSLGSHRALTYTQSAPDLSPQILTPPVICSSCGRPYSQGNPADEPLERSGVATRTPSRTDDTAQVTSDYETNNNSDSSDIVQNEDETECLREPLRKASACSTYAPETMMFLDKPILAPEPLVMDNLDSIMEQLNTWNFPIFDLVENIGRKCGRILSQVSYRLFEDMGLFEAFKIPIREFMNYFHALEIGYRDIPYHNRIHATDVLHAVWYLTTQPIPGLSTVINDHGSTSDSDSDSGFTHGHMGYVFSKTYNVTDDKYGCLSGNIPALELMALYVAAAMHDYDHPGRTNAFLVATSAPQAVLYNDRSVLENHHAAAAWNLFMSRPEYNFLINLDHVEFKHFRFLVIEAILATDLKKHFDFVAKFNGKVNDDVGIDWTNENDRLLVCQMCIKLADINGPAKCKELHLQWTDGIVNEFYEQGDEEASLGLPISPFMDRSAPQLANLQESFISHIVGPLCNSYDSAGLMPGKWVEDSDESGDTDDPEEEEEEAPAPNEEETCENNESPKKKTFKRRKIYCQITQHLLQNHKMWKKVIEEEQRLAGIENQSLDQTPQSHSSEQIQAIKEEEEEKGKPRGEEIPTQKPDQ

Row | SMILES | IC50 [1] [nM] | inhibition at 0.1 µM [2] [%] | inhibition at 0.1 µM [3] [%]
1 | CC(C)NCC(O)COc1ccc(CCNC(=O)COc2ccc(C3=NNC(=O)CC3)cc2Cl)cc1 (stereo not shown) [Compound 17c, 2-[2-Chloro-4-(6-oxo-1,4,5,6-tetrahydro-pyridazin-3-yl)-phenoxy]-N-{2-[4-(2-hydroxy-3-isopropylamino-propoxy)-phenyl]-ethyl}-acetamide] | < 100 | – | –
2 | CC(C)NCC(O)COc1ccc(COCCCOc2ccc(C3=NNC(=O)CC3)cc2Cl)cc1 (stereo not shown) [Compound 31a, 6-(3-Chloro-4-{3-[4-(2-hydroxy-3-isopropylamino-propoxy)-benzyloxy]-propoxy}-phenyl)-4,5-dihydro-2H-pyridazin-3-one] | < 1000 | – | –
3 | CC(C)NC[C@H](O)COc1ccc(C(=O)NCCNC(=O)COc2ccc(C3=NNC(=O)CC3)cc2Cl)cc1 [Compound 12a] | < 1000 | – | –
4 | CC(C)(C)NC[C@H](O)COc1ccc(C(=O)NCCNC(=O)COc2ccc(C3=NNC(=O)CC3)cc2Cl)cc1 [Compound 13, 4-((S)-3-tert-Butylamino-2-hydroxy-propoxy)-N-(2-{2-[2-chloro-4-(6-oxo-1,4,5,6-tetrahydropyridazin-3-yl)-phenoxy]-acetylamino}-ethyl)-benzamide] | < 1000 | – | –
5 | CC(C)NC[C@H](O)COc1ccc(CC(=O)NCCNC(=O)COc2ccc(C3=NNC(=O)CC3)cc2Cl)cc1 [Compound 12b, N-(2-{2-[2-Chloro-4-(6-oxo-1,4,5,6-tetrahydropyridazin-3-yl)-phenoxy]-acetylamino}-ethyl)-2-(4-((S)-2-hydroxy-3-isopropylamino-propoxy)-phenyl]-acetamide] | < 100 | – | –
6 | CC(C)(C)NC[C@H](O)COc1ccc(CCNC(=O)COc2ccc(C3=NNC(=O)CC3)cc2)cc1 [Compound 21, N-{2-[4-((S)-3-tert-butylamino-2-hydroxy-propoxy)-phenyl]-ethyl}-2-[4-(6-oxo-1,4,5,6-tetrahydro-pyridazin-3-yl)-phenoxy]-acetamide] | < 1000 | > 25 | > 25
7 | CC(C)NC[C@H](O)COc1ccc(CCOCCCOc2ccc(C3=NNC(=O)CC3)cc2Cl)cc1 [Compound 46a, 6-[3-Chloro-4-(3-{2-[4-((S)-2-hydroxy-3-isopropylamino-propoxy)-phenyl]-ethoxy}-propoxy)-phenyl]-4,5-dihydro-2H-pyridazin-3-one] | < 100 | > 25 | > 25
8 | CC(C)(C)NCC(O)COc1ccc(CCOc2ccc(C3=NNC(=O)CC3)cc2Cl)cc1 (stereo not shown) [Compound 37b, 6-(4-{2-[4-(3-tert-Butylamino-2-hydroxy-propoxy)-phenyl]-ethoxy}-3-chloro-phenyl)-4,5-dihydro-2H-pyridazin-3-one] | < 100 | – | –
9 | CC(C)NCC(O)COc1ccc(CCOc2ccc(C3=NNC(=O)CC3)cc2Cl)cc1 (stereo not shown) [Compound 37a, 6-(3-Chloro-4-{2-[4-(2-hydroxy-3-isopropylamino-propoxy)-phenyl]-ethoxy}-phenyl)-4,5-dihydro-2H-pyridazin-3-one] | < 100 | – | –
10 | CC(C)NC[C@H](O)COc1ccc(CCC(=O)NCCNC(=O)COc2ccc(C3=NNC(=O)CC3)cc2Cl)cc1 [Compound 7] | < 100 | – | –
11 | CC(C)(C)NC[C@H](O)COc1ccc(CCOCCCOc2ccc(C3=NNC(=O)CC3)cc2Cl)cc1 [Compound 46b, 6-[4-(3-{2-[4-((S)-3-tert-Butylamino-2-hydroxy-propoxy)-phenyl]-ethoxy}-propoxy)-3-chloro-phenyl]-4,5-dihydro-2H-pyridazin-3-one] | < 100 | > 25 | > 25
12 | CC(C)NCC(O)COc1ccc(CNC(=O)COc2ccc(C3=NNC(=O)CC3)cc2Cl)cc1 (stereo not shown) [Compound 17a, 2-[2-Chloro-4-(6-oxo-1,4,5,6-tetrahydro-pyridazin-3-yl)-phenoxy]-N-[4-(2-hydroxy-3-isopropylamino-propoxy)-benzyl]-acetamide] | < 1000 | – | –
13 | CC(C)(C)NCC(O)COc1ccc(CCNC(=O)COc2ccc(C3=NNC(=O)CC3)cc2Cl)cc1 (stereo not shown) [Compound 17d, N-{2-[4-(3-tert-Butylamino-2-hydroxy-propoxy)-phenyl]-ethyl}-2-[2-chloro-4-(6-oxo-1,4,5,6-tetrahydro-pyridazin-3-yl)-phenoxy]-acetamide] | < 100 | > 25 | > 25
14 | CC(C)(C)NCC(O)COc1ccc(CNC(=O)COc2ccc(C3=NNC(=O)CC3)cc2Cl)cc1 (stereo not shown) [Compound 17b, N-[4-(3-tert-Butylamino-2-hydroxy-propoxy)-benzyl]-2-[2-chloro-4-(6-oxo-1,4,5,6-tetrahydro-pyridazin-3-yl)-phenoxy]-acetamide] | < 1000 | – | –
15 | CC(C)(C)NCC(O)COc1ccc(COCCCOc2ccc(C3=NNC(=O)CC3)cc2Cl)cc1 (stereo not shown) [Compound 31b, 6-(4-{3-[4-(3-tert-Butylamino-2-hydroxy-propoxy)-benzyloxy]-propoxy}-3-chloro-phenyl)-4,5-dihydro-2H-pyridazin-3-one] | < 100 | > 25 | > 25
